These are literature values, as cited in patent US20060147527A1, “Controlled release preparations comprising tramadol and topiramate” (CILAG AG, priority 2002, published 2006).

The series relates to Chung model of post-nerve constriction injury. To be noted: each drug alone.

On to `COc1cccc(C2(O)CCCCC2CN(C)C)c1` (single isomer, unassigned) [tramadol, (1R,2R or 1S,2S)-2-[(dimethylamino)methyl]-1-(3-methoxyphenyl)-cyclohexanol], for which the “maximal effect reached as the dose is escalated” value is given as 100 % MPE. On to `CC1(C)O[C@@H]2[C@@H](CO[C@@]3(COS(N)(=O)=O)OC(C)(C)O[C@@H]23)O1` [topiramate, 2,3:4,5-bis-O-(1-methylethylidene)-β-D-fructopyranose sulfamate], for which the “maximal effect reached as the dose is escalated” value is given as 100 % MPE.
